# From ChEMBL document CHEMBL4387714, “Four N-(E)-cinnamoyl (cinnamamide) derivatives of aminoalkanols with promising anticonvulsant and analgesic activity” (Bioorg Med Chem Lett, 2019)
# Activity calls are given as the source filed them. The calls are words filed in the database; no cut-off is given here.
# How the values were obtained:
# Mus musculus [1] = assay: Anticonvulsant activity in albino CF1 mouse assessed as time to clonus at 180 mg/kg, ip administered 0.5 hrs prior to MTZ challenge (reference value: 29.3 +/- 1.2 s); type: functional
# Mus musculus [2] = assay: Anticonvulsant activity in 60-Hz corneal stimulation-induced full kindling albino CF1 mouse model of epilepsy assessed as reduction in seizure score at 70 mg/kg, ip administered 0.25 hrs prior to 60-Hz corneal stimulation; type: functional, organism-based
# Mus musculus [3] = assay: Anticonvulsant activity in albino CF1 mouse model of metrazol-induced seizures assessed as metrazol dose causing first twitch at 56 mg/kg, ip administered 0.5 hrs prior to MTZ challenge (reference value: 25.6 +/- 0.9 mg/kg); type: functional
# Mus musculus [4] = assay: Anticonvulsant activity in 60-Hz corneal stimulation-induced full kindling albino CF1 mouse model of epilepsy assessed as reduction in seizure score at 25 mg/kg, ip administered 0.25 hrs prior to 60-Hz corneal stimulation; type: functional, organism-based
# Mus musculus [5] = assay: Anticonvulsant activity in ip dosed 60-Hz corneal stimulation-induced full kindling albino CF1 mouse model of epilepsy assessed as reduction in seizure score treated 0.25 hrs prior to 60-Hz corneal stimulation; type: functional
# Mus musculus [6] = assay: Anticonvulsant activity in 60-Hz corneal stimulation-induced full kindling albino CF1 mouse model of epilepsy assessed as reduction in seizure score at 42 mg/kg, ip administered 0.25 hrs prior to 60-Hz corneal stimulation; type: functional, organism-based
# Mus musculus [7] = assay: Anticonvulsant activity in albino CF1 mouse model of metrazol-induced seizures assessed as metrazol dose causing first twitch at 180 mg/kg, ip administered 0.5 hrs prior to MTZ challenge (reference value: 25.6 +/- 0.9 mg/kg); type: functional
# Mus musculus [8] = assay: Anticonvulsant activity in albino CF1 mouse model of metrazol-induced seizures assessed as time to twitch at 180 mg/kg, ip administered 0.5 hrs prior to MTZ challenge (reference value: 26.5 +/- 1.0 s); type: functional
# [9] = Toxicity in albino CF1 mouse assessed as body weight at 180 mg/kg, ip measured at 0.5 hrs (reference value: 29.3 +/- 0.3 g); type: organism-based; settings: in vivo
# Mus musculus [10] = assay: Anticonvulsant activity in albino CF1 mouse model of metrazol-induced seizures assessed as time to twitch at 56 mg/kg, ip administered 0.5 hrs prior to MTZ challenge (reference value: 26.5 +/- 1.0 s); type: functional
# Mus musculus [11] = assay: Anticonvulsant activity in albino CF1 mouse assessed as metrazol dose causing first clonus at 56 mg/kg, ip administered 0.5 hrs prior to MTZ challenge (reference value: 28.4 +/- 1.1 mg/kg); type: functional
# [12] = Toxicity in albino CF1 mouse assessed as body weight at 56 mg/kg, ip measured at 0.5 hrs (reference value: 29.3 +/- 0.3 g); type: organism-based; settings: in vivo
# Mus musculus [13] = assay: Anticonvulsant activity in albino CF1 mouse assessed as time to clonus at 56 mg/kg, ip administered 0.5 hrs prior to MTZ challenge (reference value: 29.3 +/- 1.2 s); type: functional
# Mus musculus [14] = assay: Anticonvulsant activity in albino CF1 mouse assessed as metrazol dose causing first clonus at 180 mg/kg, ip administered 0.5 hrs prior to MTZ challenge (reference value: 28.4 +/- 1.1 mg/kg); type: functional
# Mus musculus [15] = assay: Anticonvulsant activity in 60-Hz corneal stimulation-induced full kindling albino CF1 mouse model of epilepsy assessed as reduction in seizure score at 15 mg/kg, ip administered 0.25 hrs prior to 60-Hz corneal stimulation; type: functional, organism-based
# Mus musculus [16] = assay: Anticonvulsant activity in albino CF1 mouse assessed as time to clonus at 196 mg/kg, ip administered 0.25 hrs prior to MTZ challenge (reference value: 29 +/- 1.6 s); type: functional
# Mus musculus [17] = assay: Anticonvulsant activity in 60-Hz corneal stimulation-induced full kindling albino CF1 mouse model of epilepsy assessed as reduction in seizure score at 94 mg/kg, ip administered 0.25 hrs prior to 60-Hz corneal stimulation; type: functional, organism-based
# Mus musculus [18] = assay: Anticonvulsant activity in albino CF1 mouse assessed as metrazol dose causing first clonus at 196 mg/kg, ip administered 0.25 hrs prior to MTZ challenge (reference value: 30.9 +/- 1.6 mg/kg); type: functional
# Mus musculus [19] = assay: Anticonvulsant activity in albino CF1 mouse assessed as time to clonus at 54 mg/kg, ip administered 0.25 hrs prior to MTZ challenge (reference value: 29 +/- 1.6 s); type: functional
# Mus musculus [20] = assay: Anticonvulsant activity in albino CF1 mouse model of metrazol-induced seizures assessed as time to twitch at 196 mg/kg, ip administered 0.25 hrs prior to MTZ challenge (reference value: 25.9 +/- 1.3 s); type: functional
# Mus musculus [21] = assay: Anticonvulsant activity in albino CF1 mouse assessed as metrazol dose causing first clonus at 54 mg/kg, ip administered 0.25 hrs prior to MTZ challenge (reference value: 30.9 +/- 1.6 mg/kg); type: functional
# Mus musculus [22] = assay: Anticonvulsant activity in albino CF1 mouse model of metrazol-induced seizures assessed as metrazol dose causing first twitch at 54 mg/kg, ip administered 0.25 hrs prior to MTZ challenge (reference value: 27.6 +/- 1.3 mg/kg); type: functional
# [23] = Toxicity in albino CF1 mouse assessed as body weight at 196 mg/kg, ip measured at 0.25 hrs (reference value: 26.5 +/- 0.3 g); type: organism-based; settings: in vivo
# Brain [24] = assay: (§1) In vitro anticonvulsant activity in kainic acid-induced albino Sprague Dawley rat brain assessed as blockade of ACSF-stimulated spontaneous electrographic seizure-like activity in medial entorhinal cortex hippocampal brain slices by measuring burst duration at 100 uM measured after 20 mins relative to control; type: functional
# Mus musculus [25] = assay: Anticonvulsant activity in albino CF1 mouse model of metrazol-induced seizures assessed as time to twitch at 54 mg/kg, ip administered 0.25 hrs prior to MTZ challenge (reference value: 25.9 +/- 1.3 s); type: functional
# Mus musculus [26] = assay: Anticonvulsant activity in albino CF1 mouse model of metrazol-induced seizures assessed as metrazol dose causing first twitch at 196 mg/kg, ip administered 0.25 hrs prior to MTZ challenge (reference value: 27.6 +/- 1.3 mg/kg); type: functional
# Mus musculus [27] = assay: Neuroprotective activity against controlled cortical impact-induced C57Bl/6 acute mouse model of traumatic brain injury assessed as lesion volume at 54 mg/kg, ip administered twice daily for 3 days starting from 0.5 hrs post controlled cortical impact challenge measured post-last dose by naurotrace 435/455 staining-based fluorescent microscopy (reference value: 11.9 +/- 0.7 mm3); type: functional
# [28] = Toxicity in albino CF1 mouse assessed as body weight at 54 mg/kg, ip measured at 0.25 hrs (reference value: 26.5 +/- 0.3 g); type: organism-based; settings: in vivo
# Brain [29] = assay: as §1, with “rate” for “duration”; type: functional
compound,measurement,setting,value
CC(O)CNC(=O)/C=C/c1ccc(Cl)cc1 (racemic),Time,Mus musculus [1],106.1 s
same,Activity,Mus musculus [2],Active
same,Activity,Mus musculus [3],45 mg/kg
same,Activity,Mus musculus [4],inactive
same,ED50,Mus musculus [5],51.1 mg/kg
same,Activity,Mus musculus [6],inactive
same,Activity,Mus musculus [7],60.3 mg/kg
same,Time,Mus musculus [8],60.8 s
same,Activity,[9],28.6 g
same,Time,Mus musculus [10],45.1 s
same,Activity,Mus musculus [11],65.4 mg/kg
same,Activity,[12],28.4 g
same,Time,Mus musculus [13],65.6 s
same,Activity,Mus musculus [14],105.4 mg/kg
same,Activity,Mus musculus [15],inactive
CCC(CO)NC(=O)/C=C/c1ccc(Cl)cc1 (racemic),Time,Mus musculus [16],90.2 s
same,Activity,Mus musculus [17],Active
same,Activity,Mus musculus [18],98.6 mg/kg
same,ED50,Mus musculus [5],25.7 mg/kg
same,Time,Mus musculus [19],42.1 s
same,Time,Mus musculus [20],63 s
same,Activity,Mus musculus [21],44.9 mg/kg
same,Activity,Mus musculus [22],36.2 mg/kg
same,Activity,[23],26 g
same,Activity,Brain [24],90%
same,Time,Mus musculus [25],33.9 s
same,Activity,Mus musculus [26],68.7 mg/kg
same,Activity,Mus musculus [27],11.44 mm3
same,Activity,[28],26.5 g
same,Activity,Brain [29],87%
